Measured values: patent US20170029388A1, “Treatment of Neurodegenerative Diseases with Asparagine Endopeptidase (AEP) Inhibitors and Compositions Related Thereto” (INTERCONTINENTAL GREAT BRANDS LLC, priority 2014, published 2017)
“Also recorded” adds a separate entry of the source.

Columns and labels:
[1] = test system: AEP; assay: Oxygen-glucose deprivation (OGD) in primary neurons, AEP activity; format: cell-based; conditions: 0.1 μM or 1.0 μM compound
Description: (§1) A. AEP activity, measured in primary neuronal cultures with 5 μM Cbz-Ala-Ala-Asn-AMC (x-axis denotes neurons were treated with 0.1 μM or 1.0 μM specified compound). B. Caspase activity, measured in primary neuronal cultures with 5 μM Ac-Asp-Glu-Val-Asp-AMC. C. Cathepsin activity, measured in primary neuronal cultures with 5 μM D-Val-Leu-Lys-AMC. D. Inhibition of APP cleavage. Lysates of primary cortical neurons pre-incubated with compounds for 30 min, underwent OGD for 4 hrs, were reperfused for 18 hrs (normoxia neurons remained at normoxic conditions). E. APP can be cleaved in a dose-dependent manner. Lysates of primary cortical neurons pre-incubated with compounds for 30 min, underwent OGD for 4 hrs, were reperfused for 18 hrs (normoxia neurons remained at normoxic conditions).
(§2) Depriving cells of oxygen and glucose is a cellular model that is employed to trigger acidosis in cultured cells. The efficacy of the compounds in a cellular model of oxygen-glucose deprivation (OGD) was determined in an effort to mimic the effects of stroke in primary cultured neurons. As a result of depriving neurons of oxygen and glucose-containing medium, AEP activity was doubled (FIG. 7A, ‘DMSO-Norm’ compared to ‘DMSO-OGD’), while Caspase-3 and Cathepsin activities remained relatively unchanged. […]

[2] = test system: Caspase-3; assay: OGD in primary neurons, Caspase activity; format: cell-based; conditions: 0.1 μM or 1.0 μM compound
Description: as §1, §2

[3] = test system: Cathepsin; assay: OGD in primary neurons, Cathepsin activity; format: cell-based; conditions: 0.1 μM or 1.0 μM compound
Description: as §1, §2

[4] = test system: 5XFAD mice; assay: Morris water maze in 5XFAD mice; format: in vivo, mouse
Source text: A. Thioflavin-S staining of amyloid plaques in the hippocampus (HP), motor cortex (MC), and frontal cortex (FC) of 5XFAD mouse brain sections. Scale bar, 50 μm. B. Quantitative analysis of amyloid plaques. […] F. The percentage of time spent in the target quadrant in the probe trail.
Female wild-type and 5XFAD mice maintained on standard drinking water or compound #11 were trained in a round, water-filled tub (52 inch diameter) in an environment rich with extra maze cues. An invisible escape platform was located in a fixed spatial location 1 cm below the water surface independent of a subjects start position on a particular trial. In this manner, subjects needed to utilize extra maze cues to determine the platform's location. At the beginning of each trial, the mouse was placed in the water maze with their paws touching the wall from 1 of 4 different starting positions (N, S, E, W). Each subject was given 4 trials/day for 5 consecutive days with a 15-min inter-trial interval. […] Upon reaching the invisible escape platform, subjects were left on it for an additional 5 s to allow for survey of the spatial cues in the environment to guide future navigation to the platform. After each trial, subjects were dried and kept in a dry plastic holding cage filled with paper towels to allow the subjects to dry off The temperature of the water was monitored every hour so that mice were tested in water that was between 22 and 25° C. Following the 5 days of task acquisition, a probe trial was presented during which time the platform was removed and the percentage of time spent in the quadrant which previously contained the escape platform during task acquisition was measured over 60 s. All trials were analysed for latency, swim path length, and swim speed by means of MazeScan (Clever Sys, Inc.).

[5] = test system: C57BL/6J mice; assay: Acute and chronic toxicity in C57BL/6J mice; conditions: 100 mg/kg

Q: `Nc1ccc(N2CCOCC2)c2nonc12` [Compound 11] was tested. Which “AEP activity in OGD-treated neurons” value [1] did it give?
A: The value was “marked dose-dependent decrease”.

Q: What about the “Caspase-3 activity in OGD-treated neurons” value [2] of the same compound?
A: The value was “not observed”.

Q: What about the “Cathepsin activity in OGD-treated neurons” value [3] of the same compound?
A: The value was “not observed”.

Q: And the “Morris water maze, distance to platform” value ([4]; 5 acquisition days, vs vehicle)?
A: Its value is “decreased distance to platform”.

Q: And the swim speed ([4]; mouse, in vivo)?
A: Its swim speed is “not altered; also recorded: not affected”.

Q: What about the “Morris water maze probe test, time in target quadrant” value ([4]; vs vehicle) of the same compound?
A: Its value is “spend more time in the target quadrant; also recorded: spent more time in the target quadrant”.

Q: And the systemic toxicity [5]?
A: Its systemic toxicity is “does not exhibit systemic toxicity”.

Q: And the body weight ([5]; oral gavage, 30-day period)?
A: Its body weight is “no significant change”.

Q: What about the “complete blood count (CBC) parameters” value ([5]; oral gavage, 30-day period) of the same compound?
A: Its value is “within the normal range”.

Q: And the “immunohistochemical staining, drug-treated vs vehicle-treated” value ([5]; oral gavage, 30-day period)?
A: Its value is “no major differences”.
